In article PMC6211254, “Determination of the inhibitory effects of N-methylpyrrole derivatives on glutathione reductase enzyme” (Journal of Enzyme Inhibition and Medicinal Chemistry, 2018):
Several values for one entry are separate records, joined by “and”; a condition that tells them apart may be missing. Identical values can stand only once.

Molecular target: T1, GR from baker's yeast (S. cerevisiae) (Saccharomyces cerevisiae, UniProt P41921)
T1 sequence (P41921 17-483 limits assumed): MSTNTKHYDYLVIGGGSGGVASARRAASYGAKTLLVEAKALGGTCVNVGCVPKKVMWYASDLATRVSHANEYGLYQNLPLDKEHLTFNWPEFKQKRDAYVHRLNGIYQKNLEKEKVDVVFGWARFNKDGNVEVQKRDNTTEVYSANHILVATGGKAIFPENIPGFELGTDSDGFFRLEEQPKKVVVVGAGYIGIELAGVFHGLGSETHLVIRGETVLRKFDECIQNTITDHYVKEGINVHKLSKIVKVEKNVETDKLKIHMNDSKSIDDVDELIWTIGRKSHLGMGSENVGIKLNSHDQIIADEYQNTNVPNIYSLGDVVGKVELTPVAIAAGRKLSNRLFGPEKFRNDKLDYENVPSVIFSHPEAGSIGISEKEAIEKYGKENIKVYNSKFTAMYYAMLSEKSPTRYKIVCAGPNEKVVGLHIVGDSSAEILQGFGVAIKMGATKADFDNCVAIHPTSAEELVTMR
Test: Glutathione reductase inhibition (Beutler's method, NADPH and GSSG as substrates)
Type: biochemical
Details: 25 °C, pH 8.0; mean from at least three determinations, errors ±3%; read-out: IC50 values obtained from regression analysis graphs for GR enzyme
Experimental: Activity of the glutathione enzyme was measured by Beutler’s method[22] in which one enzyme unit is defined as the oxidation of […] NADPH per min under the assay condition at 25 °C, pH 8.0. Different concentrations of the inhibitors were applied to the enzyme solutions and all compounds were tested in triplicate at each concentration used[18–21]. Control cuvette activity was assumed as 100% in the absence of inhibitor. A graphic of activity-versus inhibitor concentration was drawn for each compound (Figure 3).
In this work, we reported GR inhibitory capacity of N-methylpyrrole derivatives (8a-r). As known, glutathione reductase has been purified from various organisms and the influences of drugs, pesticides and various chemicals on GR activity have been investigated. In the current study, GR from baker's yeast (S. cerevisiae) was used and the inhibitory potentials of the synthetized compounds were determined using Beutler method with NADPH and GSSG as substrates and further kinetic studies were performed using the same method.

Row | IC50 | SMILES
1 | 678 nM and 1440 nM | COc1ccc(-c2cccn2C)cc1 [Compound 8o]
2 | 846 nM | Cn1cccc1-c1ccc(OC(F)(F)F)cc1 [Compound 8q]
3 | 678 nM | COc1ccccc1-c1cccn1C [Compound 8n]
4 | 1400 nM | Cc1ccc(-c2cccn2C)cc1 [Compound 8b]
5 | 1660 nM | Cc1cccc(-c2cccn2C)c1 [Compound 8c]
6 | 1420 nM | Cn1cccc1-c1ccc(F)cc1 [Compound 8i]
7 | 1790 nM | Cn1cccc1-c1ccc(C#N)cc1 [Compound 8r]
8 | 4940 nM | Cn1cccc1-c1ccccc1 [Compound 8a]
9 | 1500 nM | Cn1cccc1-c1ccc(Br)cc1 [Compound 8e]
10 | 1050 nM | Cc1ccccc1-c1cccn1C [Compound 8d]
11 | 104 nM | Cn1cccc1-c1ccccc1[N+](=O)[O-] [Compound 8m]

Row | SMILES | IC50
12 | O=NN(CCCl)C(=O)NCCCl [N,N-bis(2-chloroethyl)-N-nitrosourea, reference compound] | 645000 nM
